Data: BindingDB's records for doi:10.1016/j.ejmech.2018.08.092 (University of Lille, 2018)

Assay: Inhibition of BACE1 in human SH-SY5Y cells harboring wild type APP695 assessed as reduction in amyloid beta (1 to 42) level after 24 hrs by ELISA method

SMILES | IC50
Oc1c(CN2CCCC2)cc(Nc2ccnc3cc(Cl)ccc23)cc1CN1CCCC1 | 11.2 µM
CN(C)Cc1ccccc1-c1ccc(NCCCCN2CCCCC2)c(OCCN2CCCCC2)c1 | 1.6 µM
CN(C)Cc1ccc(-c2ccc(NCCCN3CCCCC3)c(OCCN3CCCCC3)c2)cc1 | 1.7 µM
CN(C)Cc1ccccc1-c1ccc(NCCN2CCCCC2)c(OCCCCN2CCCCC2)c1 | 1.6 µM
c1cc(-c2ccc(NCCCN3CCCCC3)c(OCCN3CCCCC3)c2)ccc1CN1CCCCC1 | 3.3 µM
c1cc(CN2CCCCC2)cc(-c2ccc(NCCCN3CCCCC3)c(OCCN3CCCCC3)c2)c1 | 4.8 µM
CN(C)Cc1ccccc1-c1ccc(NCCCN2CCCCC2)c(OCCC2CCCCC2)c1 | 2.8 µM
c1ccc(-c2ccc(NCCCN3CCCCC3)c(OCCN3CCCCC3)c2)c(CN2CCCCC2)c1 | 4.1 µM
c1ccc(-c2ccc(NCCCN3CCCCC3)c(OCCN3CCCCC3)c2)c(CN2CCOCC2)c1 | 4.2 µM
c1ccc(-c2ccc(NCCCN3CCCCC3)c(OCCN3CCCCC3)c2)cc1 | 4 µM
CN(C)Cc1ccn(-c2ccc(NCCCN3CCCCC3)c(OCCN3CCCCC3)c2)c1 | 6.5 µM
CC(C)CN(CCCN1CCN(CCCNc2nc3ccccc3[nH]2)CC1)CC(C)C [(1H-Benzoimidazol-2-yl)-{3-[4-(3-diisobutylamino-propyl)-piperazin-1-yl]-propyl}-amine] | 2.1 µM

The remaining lines, values ahead:

IC50 | SMILES
3.6 µM | CN(C)Cc1ccccc1-c1ccc(NCCCN2CCCCC2)cc1
13.7 µM | c1ccc(-c2cccc(OCCN3CCCCC3)c2)cc1
3.4 µM | CN(C)Cc1ccccc1-c1ccc(NCCCN2CCCCC2)c(OCCN2CCCCC2)c1
1.2 µM | CN(C)Cc1ccccc1-c1ccc(NCCN2CCCCC2)c(OCCN2CCCCC2)c1
1.2 µM | CN(C)Cc1ccccc1-c1cccc(OCCN2CCCCC2)c1
1.8 µM | CN(C)Cc1ccccc1-c1ccc(NCCN2CCCCC2)c(OCCCN2CCCCC2)c1
